Measured values published in PubChem BioAssay AID328 (DTP/NCI, 2004).
Several values for one entry are separate records, joined by “and”; a condition that tells them apart may be missing. Equal values may be shown once. Inconclusive results and toxic doses are left out.

System: BDF1 mice, P388 leukemia ip, median survival T/C
Experiment: NCI In Vivo Anticancer Drug Screen. Data for tumor model P388 Leukemia (intraperitoneal) in B6D2F1 (BDF1) mice
Details: endpoint: median survival time, higher = longer survival
Procedure, shortened: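 Each value expresses how treatment altered survival: treated-mouse outcome over vehicle-mouse outcome, both groups bearing the transplanted tumour.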

[1] = dose: 100.0 mg/kg/injection, schedule: Q04DX003 (ip), vehicle: saline with Tween-80
[2] = dose: 200.0 mg/kg/injection, schedule: Q04DX003 (ip), vehicle: saline with Tween-80
[3] = dose: 400.0 mg/kg/injection, schedule: Q04DX003 (ip), vehicle: saline with Tween-80
[4] = dose: 12.5 mg/kg/injection, schedule: Q01DX009 (ip), vehicle: saline with Tween-80
[5] = dose: 25.0 mg/kg/injection, schedule: Q01DX009 (ip), vehicle: saline with Tween-80

SMILES: Nc1nc(-c2ccccc2N=NN2CCN(N=Nc3ccccc3-c3nc(N)c4ccccc4n3)CC2)nc2ccccc12
- T/C (dose: 0.78 mg/kg/injection, schedule: Q01DX009 (ip), vehicle: Klucel (hydroxypropylcellulose) (HPC)): 100 % of control
- T/C (dose: 1.56 mg/kg/injection, schedule: Q01DX009 (ip), vehicle: Klucel (hydroxypropylcellulose) (HPC)): 102 % of control
- T/C (dose: 3.13 mg/kg/injection, schedule: Q01DX009 (ip), vehicle: Klucel (hydroxypropylcellulose) (HPC)): 111 % of control
- T/C (dose: 6.25 mg/kg/injection, schedule: Q01DX009 (ip), vehicle: Klucel (hydroxypropylcellulose) (HPC)): 107 % of control and 110 % of control
- T/C (dose: 12.5 mg/kg/injection, schedule: Q01DX009 (ip), vehicle: Klucel (hydroxypropylcellulose) (HPC)): 102 % of control
- T/C (dose: 25.0 mg/kg/injection, schedule: Q01DX009 (ip), vehicle: Klucel (hydroxypropylcellulose) (HPC)): 108 % of control
- T/C (dose: 50.0 mg/kg/injection, schedule: Q01DX009 (ip), vehicle: Klucel (hydroxypropylcellulose) (HPC)): 105 % of control

SMILES: CC(C)=CCC/C(C)=C/CN1C(=O)CC(C)=C(C)C1=O
- T/C [1]: 100 % of control
- T/C [2]: 100 % of control
- T/C [3]: 104 % of control

SMILES: O=C1CCCCCC2CC12 (configuration not stated) (tested in a mixture with another compound)
- T/C (dose: 100.0 mg/kg/injection, schedule: Q01DX001 (ip), vehicle: other): 98 % of control
- T/C (dose: 200.0 mg/kg/injection, schedule: Q01DX001 (ip), vehicle: other): 103 % of control
- T/C (dose: 400.0 mg/kg/injection, schedule: Q01DX001 (ip), vehicle: other): 108 % of control

SMILES: O=C(O)C(Cc1ccccc1)N=Cc1c(O)ccc2ccccc12 (configuration not stated)
- T/C [1]: 105 % of control
- T/C [2]: 114 % of control
- T/C [3]: 89 % of control

SMILES: CN(C)CCNc1ccc(O)c2sc3ccccc3c(=O)c12
- T/C (dose: 25.0 mg/kg/injection, schedule: Q04DX003 (ip), vehicle: saline with Tween-80): 96 % of control
- T/C (dose: 50.0 mg/kg/injection, schedule: Q04DX003 (ip), vehicle: saline with Tween-80): 109 % of control
- T/C [1]: 97 % of control

SMILES: COC(=O)[C@@]12OC[C@]34[C@H]([C@@H](O)[C@@H]1O)[C@@]1(C)CC(=O)C(OC(=O)CC(=O)OC5=C(C)[C@@H]6C[C@H]7OC(=O)[C@H](OC(=O)C=C(C)C)[C@H]8[C@]9(C(=O)OC)OC[C@]78[C@H]([C@@H](O)[C@@H]9O)[C@@]6(C)CC5=O)=C(C)[C@@H]1C[C@H]3OC(=O)[C@H](OC(=O)C=C(C)C)[C@@H]24
- T/C (dose: 0.18 mg/kg/injection, schedule: Q01DX009 (ip), vehicle: distilled water + Tween-80): 104 % of control
- T/C (dose: 0.37 mg/kg/injection, schedule: Q01DX009 (ip), vehicle: distilled water + Tween-80): 104 % of control
- T/C (dose: 0.75 mg/kg/injection, schedule: Q01DX009 (ip), vehicle: distilled water + Tween-80): 100 % of control
- T/C (dose: 1.5 mg/kg/injection, schedule: Q01DX009 (ip), vehicle: distilled water + Tween-80): 98 % of control
- T/C (dose: 3.0 mg/kg/injection, schedule: Q01DX009 (ip), vehicle: distilled water + Tween-80): 111 % of control

SMILES: COc1ccc2nc(C)c(COC(C)=O)cc2c1
- T/C (dose: 25.0 mg/kg/injection, schedule: Q01DX009 (ip), vehicle: saline + alcohol): 93 % of control
- T/C (dose: 50.0 mg/kg/injection, schedule: Q01DX009 (ip), vehicle: saline + alcohol): 111 % of control
- T/C (dose: 50.0 mg/kg/injection, schedule: Q04DX003 (ip), vehicle: saline + alcohol): 109 % of control
- T/C (dose: 100.0 mg/kg/injection, schedule: Q01DX009 (ip), vehicle: saline + alcohol): 101 % of control
- T/C (dose: 100.0 mg/kg/injection, schedule: Q04DX003 (ip), vehicle: saline + alcohol): 109 % of control
- T/C (dose: 200.0 mg/kg/injection, schedule: Q01DX009 (ip), vehicle: saline + alcohol): 90 % of control
- T/C (dose: 200.0 mg/kg/injection, schedule: Q04DX003 (ip), vehicle: saline + alcohol): 97 % of control
- T/C (dose: 400.0 mg/kg/injection, schedule: Q01DX009 (ip), vehicle: saline + alcohol): 109 % of control
- T/C (dose: 400.0 mg/kg/injection, schedule: Q04DX003 (ip), vehicle: saline + alcohol): 110 % of control

SMILES: CSc1ccc(NC(=O)C(O)C(O)C(O)C(O)CO)cc1 (configuration not stated)
- T/C (dose: 75.0 mg/kg/injection, schedule: Q01DX009 (ip), vehicle: saline with Tween-80): 100 % of control
- T/C (dose: 100.0 mg/kg/injection, schedule: Q04DX003 (ip), vehicle: saline sonified): 104 % of control
- T/C (dose: 150.0 mg/kg/injection, schedule: Q01DX009 (ip), vehicle: saline with Tween-80): 100 % of control
- T/C (dose: 200.0 mg/kg/injection, schedule: Q04DX003 (ip), vehicle: saline sonified): 104 % of control
- T/C (dose: 300.0 mg/kg/injection, schedule: Q01DX009 (ip), vehicle: saline with Tween-80): 100 % of control
- T/C (dose: 400.0 mg/kg/injection, schedule: Q04DX003 (ip), vehicle: saline sonified): 104 % of control

SMILES: CC(=O)[O][Hg][c]1cc[c]([Hg][O]C(C)=O)s1
- T/C (dose: 3.0 mg/kg/injection, schedule: Q01DX009 (ip), vehicle: Klucel (hydroxypropylcellulose) (HPC)): 100 % of control
- T/C (dose: 3.0 mg/kg/injection, schedule: Q04DX003 (ip), vehicle: Klucel (hydroxypropylcellulose) (HPC)): 91 % of control
- T/C (dose: 6.0 mg/kg/injection, schedule: Q01DX009 (ip), vehicle: Klucel (hydroxypropylcellulose) (HPC)): 100 % of control
- T/C (dose: 6.0 mg/kg/injection, schedule: Q04DX003 (ip), vehicle: Klucel (hydroxypropylcellulose) (HPC)): 100 % of control
- T/C (dose: 12.0 mg/kg/injection, schedule: Q01DX009 (ip), vehicle: Klucel (hydroxypropylcellulose) (HPC)): 100 % of control
- T/C (dose: 12.0 mg/kg/injection, schedule: Q04DX003 (ip), vehicle: Klucel (hydroxypropylcellulose) (HPC)): 100 % of control

SMILES: CNC=O
- T/C (dose: 7.5 mg/kg/injection, schedule: Q01DX010 (ip), vehicle: saline): 100 % of control
- T/C (dose: 15.0 mg/kg/injection, schedule: Q01DX010 (ip), vehicle: saline): 104 % of control and 109 % of control
- T/C (dose: 30.0 mg/kg/injection, schedule: Q01DX010 (ip), vehicle: saline): 104 % of control and 118 % of control
- T/C (dose: 60.0 mg/kg/injection, schedule: Q01DX010 (ip), vehicle: saline): 109 % of control and 113 % of control
- T/C (dose: 300.0 mg/kg/injection, schedule: Q01DX010 (ip), vehicle: saline): 154 % of control
- T/C (dose: 455.0 mg/kg/injection, schedule: Q01DX010 (ip), vehicle: saline): 154 % of control
- T/C (dose: 680.0 mg/kg/injection, schedule: Q01DX010 (ip), vehicle: saline): 91 % of control

SMILES: O=[N+]([O-])c1ccc(/C=[N+](\[O-])CCO)cc1
- T/C (dose: 6.25 mg/kg/injection, schedule: Q01DX009 (ip), vehicle: saline with Tween-80): 101 % of control
- T/C [4]: 101 % of control
- T/C [5]: 100 % of control

SMILES: CCOCc1cc([N+](=O)[O-])cc([N+](=O)[O-])c1O
- T/C [4]: 109 % of control
- T/C [5]: 113 % of control

SMILES: CCN1C=C/C(=C\C=C/c2cc[n+](CC)c3ccccc23)c2ccccc21
- T/C (dose: 0.13 mg/kg/injection, schedule: Q01DX009 (ip), vehicle: saline): 113 % of control
- T/C (dose: 0.25 mg/kg/injection, schedule: Q01DX009 (ip), vehicle: saline): 160 % of control
- T/C (dose: 0.27 mg/kg/injection, schedule: Q04DX003 (ip), vehicle: saline): 115 % of control
- T/C (dose: 0.4 mg/kg/injection, schedule: Q01DX009 (ip), vehicle: Klucel (hydroxypropylcellulose) (HPC)): 150 % of control
- T/C (dose: 0.4 mg/kg/injection, schedule: Q04DX003 (ip), vehicle: saline): 100 % of control and 115 % of control
- T/C (dose: 0.5 mg/kg/injection, schedule: Q01DX009 (ip), vehicle: saline): 160 % of control
- T/C (dose: 0.62 mg/kg/injection, schedule: Q01DX009 (ip), vehicle: Klucel (hydroxypropylcellulose) (HPC)): 154 % of control
- T/C (dose: 0.62 mg/kg/injection, schedule: Q04DX003 (ip), vehicle: saline): 100 % of control and 110 % of control
- T/C (dose: 0.66 mg/kg/injection, schedule: Q04DX003 (ip), vehicle: saline): 154 % of control
- T/C (dose: 0.82 mg/kg/injection, schedule: Q04DX003 (ip), vehicle: saline): 155 % of control
- T/C (dose: 44.0 micrograms/kg/injection, schedule: Q01DX009 (ip), vehicle: saline): 108 % of control

SMILES: CCOC(=O)C(OCc1ccccc1)(C(=O)NCCc1ccc(OC)c(OC)c1)C(C)C (configuration not stated)
- T/C (dose: 25.0 mg/kg/injection, schedule: Q04DX003 (ip), vehicle: other): 100 % of control
- T/C (dose: 50.0 mg/kg/injection, schedule: Q04DX003 (ip), vehicle: other): 108 % of control
- T/C (dose: 100.0 mg/kg/injection, schedule: Q04DX003 (ip), vehicle: other): 93 % of control

SMILES: O=C1CCC(C(=O)N/N=C\C=N/NC(=O)C2CCC(=O)N2)N1 (configuration not stated)
- T/C (dose: 20.0 mg/kg/injection, schedule: Q01DX009 (ip), vehicle: saline with Tween-80): 91 % of control
